Laboratory results taken from patent US9932356B2, “Pyrazolopyrimidine macrocycles as inhibitors of human immunodeficiency virus replication” (priority 2014, dated 2018).

test system: NL-RLuc virus; test: Inhibition of HIV replication (NL-RLuc luciferase reporter virus in MT-2 cells); format: cell-based; settings: Human immunodeficiency virus 1, MT2, 120 h
Source text: Inhibition of HIV replication: A recombinant NL-RLuc proviral clone was constructed in which a section of the nef gene from NL4-3 was replaced with the Renilla Luciferase gene. This virus is fully infectious and can undergo multiple cycles of replication in cell culture. In addition, the luciferous reporter provides a simple and easy method for quantitating the extent of virus growth and consequently, the antiviral activity of test compounds. The plasmid pNLRLuc contains the proviral NL-Rluc DNA cloned into pUC18 at the PvuII site. The NL-RLuc virus was prepared by transfection of 293T cells with the plasmid pNLRLuc. Transfections were performed using the LipofectAMINE PLUS kit from Invitrogen (Carlsbad, Calif.) according to the manufacturer and the virus generated was titered in MT-2 cells. For susceptibility analyses, the titrated virus was used to infect MT-2 cells in the presence of compound, and after 5 days of incubation, cells were processed and quantitated for virus growth by the amount of expressed luciferase. Assay media was RPMI 1640 supplemented with 10% heat inactivated fetal bovine serum (FBS), 100 units/ml penicillin G/100 units/ml streptomycin, 10 mM HEPES buffer pH 7.55 and 2 mM L-glutamine. The results from at least 2 experiments were used to calculate the EC50 values. Luciferase was quantitated using the Dual Luciferase kit from Promega (Madison, Wis.). Susceptibility of viruses to compounds was determined by incubation in the presence of serial dilutions of the compound. The 50% effective concentration (EC50) was calculated by using the exponential form of the median effect equation where (Fa)=1/[1+(ED50/drug conc.)^m] (Johnson V A, Byington R T. Infectivity Assay. In Techniques in HIV Research. ed. Aldovini A, Walker B D. 71-76. New York: Stockton Press. 1990).

Compared with Cc1nc2cc3nn2c(c1[C@H](OC(C)(C)C)C(=O)O)N1CCC(C)(CC1)OC/C=C/CCc1ccn(n1)-c1cccc-3c1 [Example 1, (2S)-tert-Butoxy[(21E)-4,25-dimethyl-24-oxa-1,5,7,8,15,30-hexaazahexacyclo[23.2.2.1^6,9.1^10,14.1^15,18.0^2,7]dotriaconta-2,4,6(32),8,10(31),11,13,16,18(30),21-decaen-3-yl]acetic acid], Cc1nc2cc3nn2c(c1[C@H](OC(C)(C)C)C(=O)O)N1CCC(C)(CC1)OCCCCCc1ccn(n1)-c1cccc-3c1 [Example 2, (2S)-tert-Butoxy[4,25-dimethyl-24-oxa-1,5,7,8,15,30-hexaazahexacyclo[23.2.2.1^6,9.1^10,14.1^15,18.0^2,7]dotriaconta-2,4,6(32),8,10(31),11,13,16,18(30)-nonaen-3-yl]acetic acid] is 1.8-fold lower in EC50: 87 nM for the first, 49 nM for the second.

Going from Cc1nc2cc3nn2c(c1[C@H](OC(C)(C)C)C(=O)O)N1CCC(C)(CC1)OCCCCCn1ccc(n1)-c1cccc-3c1 [Example 3, (2S)-tert-Butoxy[4,25-dimethyl-24-oxa-1,5,7,8,18,30-hexaazahexacyclo[23.2.2.1^6,9.1^10,14.1^15,18.0^2,7]dotriaconta-2,4,6(32),8,10(31),11,13,15(30),16-nonaen-3-yl]acetic acid] to Cc1nc2cc3nn2c(c1[C@H](OC(C)(C)C)C(=O)O)N1CCC(C)(CC1)OCCCCn1ccc(n1)-c1cccc-3c1 [Example 4, (2S)-tert-butoxy[4,24-dimethyl-23-oxa-1,5,7,8,18,29-hexaazahexacyclo[22.2.2.1^6,9.1^10,14.1^15,18.0^2,7]hentriaconta-2,4,6(31),8,10(30),11,13,15(29),16-nonaen-3-yl]acetic acid], the EC50 falls from 26 nM to 14 nM (1.9-fold). The second is the more potent here.

Going from Cc1cc2n(n1)-c1cccc(c1)-c1cc3nc(C)c([C@H](OC(C)(C)C)C(=O)O)c(n3n1)N1CCC(C)(CCCCCC2)CC1 [Example 5, (2S)-tert-Butoxy[4,17,26-trimethyl-1,5,7,8,15,16-hexaazahexacyclo[24.2.2.1^6,9.1^10,14.0^2,7.0^15,19]dotriaconta-2,4,6(32),8,10(31),11,13,16,18-nonaen-3-yl]acetic acid] to Cc1cc2n(n1)-c1cccc(c1)-c1cc3nc(C)c([C@H](OC(C)(C)C)C(=O)O)c(n3n1)N1CCC(C)(CCCCC2)CC1 [Example 6, (2S)-tert-butoxy[4,17,25-trimethyl-1,5,7,8,15,16-hexaazahexacyclo[23.2.2.1^6,9.1^10,14.0^2,7.0^15,19]hentriaconta-2,4,6(31),8,10(30),11,13,16,18-nonaen-3-yl]acetic acid], the EC50 rises from 4 nM to 7 nM (1.8-fold). The first is the more potent here.

Cc1nc2c(s1)CCCCCCC1(C)CCN(CC1)c1c([C@H](OC(C)(C)C)C(=O)O)c(C)nc3cc(nn13)-c1cccc-2c1 [Example 7, (2S)-tert-Butoxy[4,17,26-trimethyl-18-thia-1,5,7,8,16-pentaazahexacyclo[24.2.2.1^6,9.1^10,14.0^2,7.0^15,19]dotriaconta-2,4,6(32),8,10(31),11,13,15(19),16-nonaen-3-yl]acetic acid] and Cc1nc2c(s1)CCCCCC1(C)CCN(CC1)c1c([C@H](OC(C)(C)C)C(=O)O)c(C)nc3cc(nn13)-c1cccc-2c1 [Example 8, (2S)-tert-butoxy[4,17,25-trimethyl-18-thia-1,5,7,8,16-pentaazahexacyclo[23.2.2.1^6,9.1^10,14.0^2,7.0^15,19]hentriaconta-2,4,6(31),8,10(30),11,13,15(19),16-nonaen-3-yl]acetic acid] are the same in EC50: 7 nM for the first, 7 nM for the second.

Cc1nc2cc3nn2c(c1[C@H](OC(C)(C)C)C(=O)O)N1CCC(C)(CC/C=C/CCc2nc(C)c(C)n2-c2cccc-3c2)CC1 [Example 9, (2S)-tert-Butoxy[4,16,17,26-tetramethyl-1,5,7,8,15,18-hexaazahexacyclo[24.2.2.1^6,9.1^10,14.0^2,7.0^15,19]dotriaconta-2,4,6(32),8,10(31),11,13,16,18,22-decaen-3-yl]acetic acid] and Cc1nc2cc3nn2c(c1[C@H](OC(C)(C)C)C(=O)O)N1CCC(C)(CCCCCCc2nc(C)c(C)n2-c2cccc-3c2)CC1 [Example 10, (2S)-tert-Butoxy[4,16,17,26-tetramethyl-1,5,7,8,15,18-hexaazahexacyclo[24.2.2.1^6,9.1^10,14.0^2,7.0^15,19]dotriaconta-2,4,6(32),8,10(31),11,13,16,18-nonaen-3-yl]acetic acid] are within 1.5-fold of each other in EC50: 9 nM for the first, 7 nM for the second.
